Laboratory results: US20240065988A1, “COMBINED USE OF KETAMINE AND RETIGABINE (EZOGABINE) FOR THE TREATMENT OF PSYCHIATRIC DISORDERS” (Yeda Research and Development Co. Ltd., priority 2021, published 2024)

Test system: single cells from the ventral hippocampus (vHipp)
Assay: Single-cell RNA sequencing (scRNA-seq) of the ventral hippocampus after ketamine treatment; differential expression per cell type
[1] = Oligodendrocytes, ketamine 10 mg/kg i.p. vs saline
[2] = Vascular Cells, ketamine 10 mg/kg i.p. vs saline

CNC1(c2ccccc2Cl)CCCCC1=O (racemic) [ketamine, (R,S)-ketamine]
Zfp827 Change [1]: Up | Zfp827 logFC [1]: 0.208 | Change (P3h3, Glut Neurons): Down | Mean-Ket (P3h3, Glut Neurons): 2.278 | logFC (P3h3, Glut Neurons): −0.111 | Change (Pan3, Astrocytes): Down | Mean-Ket (Pan3, Astrocytes): 1.194 | logFC (Pan3, Astrocytes): −0.179 | Change (Pbld1, Glut Neurons): Down | Mean-Ket (Pbld1, Glut Neurons): 3.387 | logFC (Pbld1, Glut Neurons): −0.106 | Change (Poldip2, Astrocytes): Down | Mean-Ket (Poldip2, Astrocytes): 1.255 | logFC (Poldip2, Astrocytes): −0.142 | Change (Polr2c, Glut Neurons): Down | Mean-Ket (Polr2c, Glut Neurons): 2.412 | logFC (Polr2c, Glut Neurons): −0.101 | Change (Ppan, Glut Neurons): Down | Mean-Ket (Ppan, Glut Neurons): 2.680 | logFC (Ppan, Glut Neurons): −0.102 | Change (Ppp1r16b, Astrocytes): Down | Mean-Ket (Ppp1r16b, Astrocytes): 2.539 | logFC (Ppp1r16b, Astrocytes): −0.227 | Change (Rhpn2, Glut Neurons): Down | Mean-Ket (Rhpn2, Glut Neurons): 1.601 | logFC (Rhpn2, Glut Neurons): −0.114 | Change (Rpl6, Glut Neurons): Down | Mean-Ket (Rpl6, Glut Neurons): 0.808 | logFC (Rpl6, Glut Neurons): −0.190 | Change (Rpl41, Glut Neurons): Down | Mean-Ket (Rpl41, Glut Neurons): 2.239 | logFC (Rpl41, Glut Neurons): −0.192 | Change (Rps29, Glut Neurons): Down | Mean-Ket (Rps29, Glut Neurons): 0.978 | logFC (Rps29, Glut Neurons): −0.136 | Change (Rtn1, Glut Neurons): Down | Mean-Ket (Rtn1, Glut Neurons): 1.210 | logFC (Rtn1, Glut Neurons): −0.185 | Change (Saa3, Astrocytes): Up | Mean-Ket (Saa3, Astrocytes): 1.697 | logFC (Saa3, Astrocytes): 0.254 | Change (Saa3, Glut Neurons): Up | Mean-Ket (Saa3, Glut Neurons): 1.494 | logFC (Saa3, Glut Neurons): 0.193 | Change (Sec23b, Glut Neurons): Down | Mean-Ket (Sec23b, Glut Neurons): 2.447 | logFC (Sec23b, Glut Neurons): −0.109 | Change (Sec23ip, Glut Neurons): Down | Mean-Ket (Sec23ip, Glut Neurons): 2.674 | logFC (Sec23ip, Glut Neurons): −0.107 | Change (Slc23a1, Glut Neurons): Down | Mean-Ket (Slc23a1, Glut Neurons): 2.215 | logFC (Slc23a1, Glut Neurons): −0.114 | Change (Slc25a4, Glut Neurons): Down | Mean-Ket (Slc25a4, Glut Neurons): 0.872 | logFC (Slc25a4, Glut Neurons): −0.125 | Change (Snca, Glut Neurons): Down | Mean-Ket (Snca, Glut Neurons): 0.835 | logFC (Snca, Glut Neurons): −0.147 | Change (Swt1, Glut Neurons): Down | Mean-Ket (Swt1, Glut Neurons): 2.617 | logFC (Swt1, Glut Neurons): −0.085 | Change (Synb, Glut Neurons): Down | Mean-Ket (Synb, Glut Neurons): 1.730 | logFC (Synb, Glut Neurons): −0.118 | Change (Syne1, Astrocytes): Up | Mean-Ket (Syne1, Astrocytes): 1.068 | logFC (Syne1, Astrocytes): 0.128 | Change (Timeless, Glut Neurons): Down | Mean-Ket (Timeless, Glut Neurons): 2.582 | logFC (Timeless, Glut Neurons): −0.106 | Change (Tmsb4x, Glut Neurons): Down | Mean-Ket (Tmsb4x, Glut Neurons): 1.829 | logFC (Tmsb4x, Glut Neurons): −0.167 | Change (Tpd52, Astrocytes): Down | Mean-Ket (Tpd52, Astrocytes): 1.199 | logFC (Tpd52, Astrocytes): −0.145 | Change (Trpc4ap, Glut Neurons): Down | Mean-Ket (Trpc4ap, Glut Neurons): 1.729 | logFC (Trpc4ap, Glut Neurons): −0.115 | Change (Tuba1a, Astrocytes): Down | Mean-Ket (Tuba1a, Astrocytes): 1.483 | logFC (Tuba1a, Astrocytes): −0.162 | Change (Ube2k, Glut Neurons): Down | Mean-Ket (Ube2k, Glut Neurons): 2.844 | logFC (Ube2k, Glut Neurons): −0.099 | Change (Unc13d, Astrocytes): Down | Mean-Ket (Unc13d, Astrocytes): 1.469 | logFC (Unc13d, Astrocytes): −0.146 | Change (Usp34, Glut Neurons): Down | Mean-Ket (Usp34, Glut Neurons): 2.142 | logFC (Usp34, Glut Neurons): −0.099 | Flna Mean-Ket (Vascular Cells, ketamine 10 mg/kg i.p.): 2.309 | Flna Change [2]: Up | Flna logFC [2]: 2.044 | Change (Washc4, Glut Neurons): Down | Mean-Ket (Washc4, Glut Neurons): 2.856 | logFC (Washc4, Glut Neurons): −0.092 | Change (Wdr12, Glut Neurons): Down | Mean-Ket (Wdr12, Glut Neurons): 2.770 | logFC (Wdr12, Glut Neurons): −0.102 | Change (Yae1d1, Glut Neurons): Down | Mean-Ket (Yae1d1, Glut Neurons): 1.738 | logFC (Yae1d1, Glut Neurons): −0.143 | Change (Ythdc1, Astrocytes): Down | Mean-Ket (Ythdc1, Astrocytes): 1.822 | logFC (Ythdc1, Astrocytes): −0.144 | Change (Zcchc4, Glut Neurons): Down | Mean-Ket (Zcchc4, Glut Neurons): 0.973 | logFC (Zcchc4, Glut Neurons): −0.113 | Change (Zfp113, Glut Neurons): Down | Mean-Ket (Zfp113, Glut Neurons): 2.767 | logFC (Zfp113, Glut Neurons): −0.090 | Change (Zfp369, Glut Neurons): Up | Mean-Ket (Zfp369, Glut Neurons): 1.005 | logFC (Zfp369, Glut Neurons): 0.207 | genes differentially expressed exclusively in one cell type (astrocytes): 27 | genes differentially expressed exclusively in one cell type (endothelial cells): 1 | genes differentially expressed exclusively in one cell type (glutamatergic neurons): 135 | DEGs in glutamatergic neurons (glutamatergic neurons, all DEGs): 165 | total differentially expressed genes (DEGs) (in 7 of the 13 clusters, ketamine 10 mg/kg vs saline): 263 | relative cell type composition for each cluster, ketamine vs saline (ketamine 10 mg/kg BW i.p., 2 days post-injection): no significant differences | Change (mt-Atp6, Astrocytes): Up | Mean-Ket (mt-Atp6, Astrocytes): 2.236 | logFC (mt-Atp6, Astrocytes): 0.106 | Change (mt-Cytb, Astrocytes): Up | Mean-Ket (mt-Cytb, Astrocytes): 2.746 | logFC (mt-Cytb, Astrocytes): 0.093 | Change (mt-Nd2, Astrocytes): Up | Mean-Ket (mt-Nd2, Astrocytes): 1.340 | logFC (mt-Nd2, Astrocytes): 0.132 | Change (mt-Nd4, Astrocytes): Up | Mean-Ket (mt-Nd4, Astrocytes): 2.165 | logFC (mt-Nd4, Astrocytes): 0.125 | genes differentially expressed exclusively in one cell type (oligodendrocytes): 16 | genes differentially expressed exclusively in one cell type (vascular cells): 1
